Test results: ChEMBL document CHEMBL1201862, “PubChem BioAssay data set” (2004)
Active and inactive are the calls of the source.

Assays:
[1] = P. falciparum Dd2 growth inhibitors, dose response, SYBR Green, cherry-picked samples (AID 1159567); format: functional, cell-based
Fatty acid synthase [2] = target: T1, Fatty acid synthase (Homo sapiens, UniProt P49327); assay: inhibition of human FAS-TE enzyme activity – biochemical, endpoint fluorescence intensity, uHTS hits, dose response (AID 624327); format: functional;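 also: fluorescence from hydrolysis of an O-methyl fluorescein acyl ester substrate by the enzyme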
T1 sequence (P49327 whole entry): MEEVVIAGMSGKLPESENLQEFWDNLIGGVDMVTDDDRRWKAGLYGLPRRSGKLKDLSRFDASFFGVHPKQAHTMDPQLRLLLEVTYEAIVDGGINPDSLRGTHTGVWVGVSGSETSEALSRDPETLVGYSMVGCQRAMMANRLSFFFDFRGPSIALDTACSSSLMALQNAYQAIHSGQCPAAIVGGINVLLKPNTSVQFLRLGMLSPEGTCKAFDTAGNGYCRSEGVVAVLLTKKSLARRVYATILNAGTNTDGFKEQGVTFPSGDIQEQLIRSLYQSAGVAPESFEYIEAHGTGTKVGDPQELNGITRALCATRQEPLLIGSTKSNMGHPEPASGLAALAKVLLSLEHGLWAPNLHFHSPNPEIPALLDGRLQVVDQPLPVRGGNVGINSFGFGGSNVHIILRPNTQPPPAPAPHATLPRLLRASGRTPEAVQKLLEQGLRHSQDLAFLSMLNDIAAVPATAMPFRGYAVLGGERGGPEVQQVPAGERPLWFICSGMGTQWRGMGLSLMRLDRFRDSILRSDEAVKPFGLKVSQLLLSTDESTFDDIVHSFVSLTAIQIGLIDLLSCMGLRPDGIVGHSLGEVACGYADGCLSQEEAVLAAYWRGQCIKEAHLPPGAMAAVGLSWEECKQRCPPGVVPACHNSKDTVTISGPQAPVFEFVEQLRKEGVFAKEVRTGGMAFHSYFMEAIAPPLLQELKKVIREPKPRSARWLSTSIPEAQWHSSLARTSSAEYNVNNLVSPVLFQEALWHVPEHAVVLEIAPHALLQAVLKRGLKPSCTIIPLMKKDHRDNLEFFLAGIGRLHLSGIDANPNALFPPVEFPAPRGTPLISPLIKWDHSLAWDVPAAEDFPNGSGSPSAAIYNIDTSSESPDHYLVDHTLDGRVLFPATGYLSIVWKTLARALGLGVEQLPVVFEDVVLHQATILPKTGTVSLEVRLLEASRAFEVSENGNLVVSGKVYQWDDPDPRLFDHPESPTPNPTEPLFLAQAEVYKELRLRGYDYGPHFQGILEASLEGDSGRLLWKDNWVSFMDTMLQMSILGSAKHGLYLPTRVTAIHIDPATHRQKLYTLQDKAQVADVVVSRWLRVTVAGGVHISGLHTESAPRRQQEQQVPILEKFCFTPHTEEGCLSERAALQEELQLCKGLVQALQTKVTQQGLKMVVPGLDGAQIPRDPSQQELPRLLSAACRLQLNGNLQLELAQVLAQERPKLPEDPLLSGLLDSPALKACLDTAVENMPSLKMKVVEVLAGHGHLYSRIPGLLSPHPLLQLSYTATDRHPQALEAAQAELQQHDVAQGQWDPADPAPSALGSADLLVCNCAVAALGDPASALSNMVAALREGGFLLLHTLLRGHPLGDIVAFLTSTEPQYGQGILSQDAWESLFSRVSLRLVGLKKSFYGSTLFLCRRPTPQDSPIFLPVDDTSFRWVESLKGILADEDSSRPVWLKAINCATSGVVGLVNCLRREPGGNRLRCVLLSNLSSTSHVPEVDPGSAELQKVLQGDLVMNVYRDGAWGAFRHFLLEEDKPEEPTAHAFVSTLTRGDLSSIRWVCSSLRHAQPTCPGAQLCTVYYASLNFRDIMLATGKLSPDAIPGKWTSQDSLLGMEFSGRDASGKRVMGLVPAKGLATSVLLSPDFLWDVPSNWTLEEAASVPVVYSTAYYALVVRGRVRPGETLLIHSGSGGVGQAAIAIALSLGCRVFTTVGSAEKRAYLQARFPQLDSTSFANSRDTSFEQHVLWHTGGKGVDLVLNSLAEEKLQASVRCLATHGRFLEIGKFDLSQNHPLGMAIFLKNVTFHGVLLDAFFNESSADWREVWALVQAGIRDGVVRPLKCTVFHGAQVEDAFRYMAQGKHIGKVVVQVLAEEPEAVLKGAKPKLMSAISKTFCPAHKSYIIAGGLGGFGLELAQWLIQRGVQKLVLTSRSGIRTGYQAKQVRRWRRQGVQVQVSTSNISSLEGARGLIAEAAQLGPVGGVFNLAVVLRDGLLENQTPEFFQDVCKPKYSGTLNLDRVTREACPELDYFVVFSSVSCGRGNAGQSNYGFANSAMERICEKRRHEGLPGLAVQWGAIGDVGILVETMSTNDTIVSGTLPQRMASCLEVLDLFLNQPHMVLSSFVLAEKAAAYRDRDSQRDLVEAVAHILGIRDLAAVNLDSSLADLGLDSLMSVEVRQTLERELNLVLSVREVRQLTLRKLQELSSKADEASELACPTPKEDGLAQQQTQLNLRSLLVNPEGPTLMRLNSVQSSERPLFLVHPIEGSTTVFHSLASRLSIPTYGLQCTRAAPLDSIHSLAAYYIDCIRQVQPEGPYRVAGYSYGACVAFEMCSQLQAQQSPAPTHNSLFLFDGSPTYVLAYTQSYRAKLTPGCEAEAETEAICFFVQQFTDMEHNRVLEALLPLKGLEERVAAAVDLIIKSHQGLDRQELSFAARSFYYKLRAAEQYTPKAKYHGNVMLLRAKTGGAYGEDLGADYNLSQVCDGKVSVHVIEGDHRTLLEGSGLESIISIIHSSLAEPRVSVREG

Fatty acid synthase [3] = target: T1, Fatty acid synthase; assay: inhibition of human FAS-TE enzyme activity – biochemical, kinetic fluorescence intensity, dose response (AID 624326); format: functional;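 also: rate of fluorescence rise from hydrolysis of a fluorogenic O-methyl fluorescein ester substrate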
BJ [4] = assay: cells; format: functional, cell-based; conditions: Homo sapiens
BJ [5] = assay: BJ-TERT-LT-ST fibroblast viability loss – cell-based, RAS-independent, luminescence, dose response (AID 1935); format: functional; conditions: Homo sapiens;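 also: BJ fibroblasts immortalized with TERT plus LT and ST oncogenes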
[6] = DRD fibroblast viability loss – cell-based, non-viral oncogenic, luminescence, dose response (AID 1934); format: functional; conditions: Homo sapiens
BJ [7] = assay: growth inhibition of engineered Ras-driven BJ cells – cell-based, alamar blue fluorescence, cherrypicked samples, dose response (AID 2631); format: functional; conditions: Homo sapiens;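 also: confirmatory dose-response assay in RAS-dependent BJ fibroblasts engineered with TERT, LT and ST, with cytotoxicity read by fluorescence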
BJ [8] = assay: BJ-TERT fibroblast viability loss – cell-based, RAS-independent, luminescence, dose response (AID 1933); format: functional; conditions: Homo sapiens
[9] = target: Eukaryotic translation initiation factor 4E (Mus musculus, UniProt P63073); assay: blockers of eIF4G binding by eIF4E – biochemical, TR-FRET, dose response (AID 855); format: functional;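 also: potency for disrupting eIF4E binding to eIF4GI seen as loss of FRET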
Chain of Eukaryotic translation initiation factor 4E (P63073 whole entry): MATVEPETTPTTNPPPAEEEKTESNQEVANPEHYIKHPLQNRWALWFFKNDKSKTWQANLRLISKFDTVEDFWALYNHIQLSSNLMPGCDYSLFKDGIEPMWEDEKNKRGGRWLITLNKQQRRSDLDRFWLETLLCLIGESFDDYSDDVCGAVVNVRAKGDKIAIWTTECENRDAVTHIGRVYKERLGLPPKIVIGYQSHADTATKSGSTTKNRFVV

[10] = target: T2, Glutathione-S-transferase (Schistosoma japonicum, UniProt Q26513); assay: GST-antibody interaction or FRET quenching – biochemical, TR-FRET, artefact control for Vif-APOBEC3G degradation inhibitor project, dose response (AID 1117362); format: functional
T2 sequence (Q26513 whole entry): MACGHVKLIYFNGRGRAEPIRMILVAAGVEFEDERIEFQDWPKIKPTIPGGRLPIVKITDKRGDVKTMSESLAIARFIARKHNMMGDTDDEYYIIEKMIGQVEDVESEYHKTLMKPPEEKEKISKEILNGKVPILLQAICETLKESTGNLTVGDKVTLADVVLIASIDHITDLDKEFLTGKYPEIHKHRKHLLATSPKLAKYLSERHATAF

Row | SMILES | IC50 (Fatty acid synthase [2]) | IC50 (Fatty acid synthase [3]) | other results
1 | C[C@@H]1CN([C@H](C)CO)C(=O)c2cc(-c3ccc(C#N)cc3)cnc2O[C@H]1CN(C)C(=O)Nc1ccc(C(F)(F)F)cc1 | – | – | AC50 [1]: 21.2 µM (active)
2 | COc1ccc([N+](=O)[O-])cc1NC(=O)CCC(=O)c1cccs1 | 9.16 µM (active) | 9.62 µM (active) | –
3 | CC1=C(C(=O)OCC(Br)(Br)Br)C(c2cccc([N+](=O)[O-])c2)NC(=O)N1CCCC(=O)O (centres undefined) | 7.69 µM (active) | 5.05 µM (active) | –
4 | CC(C)(C)[S@+]([O-])N1Cc2cc(C(=O)N[C@@H]3CCN(Cc4ccccc4)C3)nc(-c3cccc(-c4ccncc4)c3)c2[C@@H]1CCO | – | – | AC50 [1]: 4.68 µM (active)
5 | O=C(/C=C/c1ccc(F)cc1)NNC(=O)CCN1CCN(Cc2ccccc2)CC1 | – | – | EC50 (BJ [4]): 3.53 µM (active); EC50 (BJ [5]): 2.15 µM (active); EC50 [6]: 2.92 µM (active); EC50 (BJ [7]): > 133 µM (inactive); EC50 (BJ [8]): 19.1 µM (active)
6 | O=C(COc1ccccc1Cl)c1ccc[nH]1 | – | – | IC50 [9]: 50 µM (inactive); IC50 [10]: > 100 µM (active)
7 | O=[N+]([O-])c1ccc(S(=O)(=O)NN=Cc2ccc3c(c2)OCO3)cc1 | 5.4 µM (active) | 5.8 µM (active) | –
8 | COC(=O)c1ccc(CSc2nc(C(F)F)cc(C)c2C#N)o1 | 17.2 µM (active) | 18.6 µM (active) | –
9 | CCOC(=O)CC(NC(=O)c1cc2ccccc2oc1=O)c1cccc([N+](=O)[O-])c1 (centres undefined) | 16.7 µM (active) | 15.5 µM (active) | –
